Values of other authors in paper PMC8395767, “Worsening of the Toxic Effects of (±)Cis-4,4′-DMAR Following Its Co-Administration with (±)Trans-4,4′-DMAR: Neuro-Behavioural, Physiological, Immunohistochemical and Metabolic Studies in Mice” (International Journal of Molecular Sciences, 2021).

Legend:
5-HT2C = target: 5-HT2C; parameters: method as in PMID 29908239; settings: read-out: Ki at 5-HT2C receptor; cited from earlier work
DAT/SERT = system: DAT/SERT; parameters: method as in PMID 30776375; settings: cited from earlier work
[1] = system: noradrenaline (NET) transporter; parameters: method as in PMID 30776375, PMID 25331619, PMID 29908239; settings: in vitro; cited from earlier work
[2] = system: dopamine (DAT) transporter; parameters: method as in PMID 30776375, PMID 25331619, PMID 29908239; settings: in vitro; cited from earlier work
5-HT2A = target: 5-HT2A; parameters: method as in PMID 29908239; settings: read-out: Ki at 5-HT2A receptor; cited from earlier work
serotonin transporters = system: serotonin transporters; parameters: method as in PMID 30776375, PMID 25331619, PMID 29908239; settings: in vitro; cited from earlier work
rat brain synaptosomes = system: rat brain synaptosomes; parameters: method as in PMID 24841869; settings: compared with d-amphetamine, aminorex and 4-MAR; cited from earlier work

Cc1ccc(C2OC(N)=NC2C)cc1 (stereo not shown) [4,4′-DMAR, 4-Methyl-5-(4-methylphenyl)-4,5-dihydrooxazol-2-amine]
Ki (5-HT2C): ~11 µM
DAT/SERT ratio (DAT/SERT): 0.4
Inhibitory activity on noradrenaline transporter (NET) [1]: potent inhibitory activity
Inhibitory activity on dopamine transporter (DAT) [2]: potent inhibitory activity
Ki (5-HT2A): ~8.9 µM
Inhibitory activity on serotonin transporters (serotonin transporters): potent inhibitory activity
Release of 5-HT from rat brain synaptosomes (rat brain synaptosomes): most potent releaser
